The conditions of data set [1]: artesunate 4 mg/kg with Malarone, final day of three day course; second and third trimester pregnant women, Thailand; 90% range 0.9-60.7; cited from earlier work.
Data set [2] in a line: Noncompartmental plasma pharmacokinetics of AS and DHA after a single 200 mg oral dose of AS (LC-MS). Particulars: for CL/F: DHA CL/F; for fraction unbound: DHA FF (free fraction); for Tmax: DHA Tmax; for half-life: DHA T½; for Vd/F: DHA Vd/F. The method, then: The four tablets were given orally with 240 mL water under medical supervision. A catheter was inserted into a forearm vein for pharmacokinetic sample collection and flushed after each blood draw with saline solution. […] Blood for malaria smears were taken by finger prick at pre-dose and at 12, 24, 30, 36, 42 and 48 hours post-dose. Malaria smears were also performed on days 7, 14 and 28.
The persistence of malaria infection and adverse events were tracked for 28 days after SP administration. Babies born from the pregnant women cohort were followed until one year of age and development assessed.
The reconstituted extracts were chromatographed isocratically and the compounds detected and quantified by mass spectroscopy.
Concentrations below the lower limit of quantification were assigned a value of zero.
The ratio of the AUC during pregnancy to the AUC at postpartum (after log transformation) was considered a measure of the impact of pregnancy on systemic exposure. […] The "no effect" interval was selected based on the dose-ranging study by Angus and coworkers. […] Statistical analyses were performed using SAS/STAT software, version 9.2 (SAS Institute, Inc., Cary, NC, 2008). […] Spearman correlations were used to look for associations among the pregnant and control population. All p-values were 2-sided.

Data set [3] concerns Plasmodium falciparum. As to the kind of experiment: Pharmacodynamics of AS: parasitaemia on malaria smears after dosing. The data set is classed as in vivo. The note with it: for Parasitaemic - n (%) / Parasite density (where > 0): 12 hours after 200 mg oral AS. How it is done: To determine if women met the eligibility criteria, a complete medical history and physical examination was performed by a study physician; sociodemographic data was collected by a study nurse. Haematocrit was measured using a microhaematocrit centrifuge (Hawksley Haematospin 1400, Hawksley & Sons, Ltd, UK). Thick and thin blood films were stained with Giemsa and then read to determine parasite species and the density of P. falciparum asexual stages. Parasite density, based on examination of at least 200 high-power microscope fields, was calculated as (# trophozoites/#white blood cells)*6000. Human Immunodeficiency Virus (HIV) serology was determined using the Determine 1/2 HIV Test Kit (Inverness Medical Professional Diagnostics, Princeton, NJ). Liver function was assessed by measuring aspartate aminotransferase (AST) and alanine aminotransferase (ALT) in plasmaPiccolo Portable Chemistry Analyser, Abaxis, USA). Alpha-1-Acid glycoprotein was determined in serum samples using radial immunodiffusion (Kent Laboratories, Bellingham, WA, USA). […]

The subject of data set [4] is Plasmodium falciparum. Particulars: sigmoid Emax pharmacodynamic model of PCT; cited from earlier work.
On the set-up of data set [5]: species or system human. The note with it: in vivo. How it is done:
To determine if women met the eligibility criteria, a complete medical history and physical examination was performed by a study physician; sociodemographic data was collected by a study nurse. Haematocrit was measured using a microhaematocrit centrifuge (Hawksley Haematospin 1400, Hawksley & Sons, Ltd, UK). Thick and thin blood films were stained with Giemsa and then read to determine parasite species and the density of P. falciparum asexual stages. […] Human Immunodeficiency Virus (HIV) serology was determined using the Determine 1/2 HIV Test Kit (Inverness Medical Professional Diagnostics, Princeton, NJ). Liver function was assessed by measuring aspartate aminotransferase (AST) and alanine aminotransferase (ALT) in plasmaPiccolo Portable Chemistry Analyser, Abaxis, USA). Alpha-1-Acid glycoprotein was determined in serum samples using radial immunodiffusion (Kent Laboratories, Bellingham, WA, USA).

[6] abbreviates: female, human, plasma, po, 200 mg, 200 mg oral AS, ante-partum pregnant cases, median [range].
The mark [7] stands for this setting: female, human, plasma, po, 200 mg, 200 mg oral AS, non-pregnant controls, median [range].
The mark [8] stands for this setting: female, human, plasma, po, 200 mg, 200 mg oral AS, post-partum (3 months), median [range].

“And” between values parts separate entries of the source, which are not always exact repeats. Equal entries are not always repeated. “Also recorded” adds a separate entry of the source.

Take `C[C@H]1[C@@H](O)O[C@@H]2O[C@@]3(C)CC[C@H]4[C@H](C)CC[C@@H]1[C@@]24OO3` [DHA, dihydroartemisinin]: the “median DHA Vd/F” value in data set [1] is on record as 3.4 L/kg. Moreover, the “median free AUC for DHA in pregnant women as percentage of non-pregnant controls” value in data set [2] (200 mg oral AS) was 79%. The “median total AUC for DHA in pregnant women as percentage of non-pregnant controls” value in data set [2] (200 mg oral AS) is 62%. Further, in data set [2] (200 mg oral AS, ante-partum pregnant cases, median [range]), the “DHA AUCall” value was 1730.5 [1034.7 - 4085.5] ng*h/mL. For the same molecule, the “DHA T½” value in data set [2] (200 mg oral AS, non-pregnant controls, median [range]) was 1.41 [0.86 - 6.55] h. The AUC – broadly, the area under the concentration-time curve, a measure of exposure – was determined as 1730 ng·h/mL in data set [2] (female, human, plasma, po, 200 mg, DHA AUCall, 200 mg oral AS, ante-partum pregnant cases, median [range]); 2790 ng·h/mL in data set [2] (female, human, plasma, po, 200 mg, DHA AUCall, 200 mg oral AS, non-pregnant controls, median [range]); 2120 ng·h/mL in data set [2] (female, human, plasma, po, 200 mg, DHA AUCall, 200 mg oral AS, post-partum (3 months), median [range]). Further, the values for the CL/F in data set [2] (setting [6]), in data set [2] (setting [7]) and in data set [2] (setting [8]) were 23.2 mL/min/kg, 17.8 mL/min/kg and 21 mL/min/kg, respectively. The Cmax (in general, the maximum level reached in the sampled fluid or tissue) in data set [2] (female, human, plasma, po, 200 mg, DHA Cmax, 200 mg oral AS, ante-partum pregnant cases, median [range]) came to 905 ng/mL; in data set [2] (female, human, plasma, po, 200 mg, DHA Cmax, 200 mg oral AS, non-pregnant controls, median [range]), 1280 ng/mL; in data set [2] (female, human, plasma, po, 200 mg, DHA Cmax, 200 mg oral AS, post-partum (3 months), median [range]), 980 ng/mL; in data set [2] (female, human, plasma, po, 200 mg, median DHA Cmax, 200 mg oral AS, non-pregnant control group) it was 1280 ng/mL; in data set [2] (female, human, plasma, po, 200 mg, median DHA Cmax, 200 mg oral AS, pregnant group), 905 ng/mL. The fraction unbound – broadly, free concentration divided by total concentration – in data set [2] (setting [6]) was 0.21; in data set [2] (setting [7]), 0.18; in data set [2] (setting [8]), 0.19. Further, the Tmax (in general, the time at which the peak concentration occurs) in data set [2] (setting [6]) came out at 1.5 h; in data set [2] (setting [7]) it was 1.52 h; in data set [2] (setting [8]) it was 1.5 h. Moreover, the half-life (commonly the time needed for the level to fall by half in the phase considered) in data set [2] (setting [6]) is 1.28 h; in data set [2] (setting [8]), 1.63 h. Also, the Vd/F (usually the volume of distribution divided by bioavailability) was 157 L and 2.84 L/kg in data set [2] (setting [6]); 128 L and 2.45 L/kg in data set [2] (setting [7]); 158 L and 3 L/kg in data set [2] (setting [8]).
On to `C[C@H]1[C@H](OC(=O)CCC(=O)O)O[C@@H]2O[C@@]3(C)CC[C@H]4[C@H](C)CC[C@@H]1[C@@]24OO3` [AS, artesunate], for which the “aparasitaemic at 12 hours among those parasitaemic at t = 0” value with Plasmodium falciparum [3] (200 mg oral AS, 13 of the 14 non-pregnant controls) was 93%. In the data set with Plasmodium falciparum [3] (200 mg oral AS, 21 of the 24 pregnant women), the “aparasitaemic at 12 hrs among those parasitaemic at t = 0” value was 87.5%. Further, the “Parasitaemic - n (%)” value with Plasmodium falciparum [3] (all pregnant cases, N 26) was 3 (11.5); in the data set with Plasmodium falciparum [3] (non-pregnant controls, N 25), 1 (4.0); with Plasmodium falciparum [3] (pregnant cases Window 1 (22-26 wks GA), N 13) it was 3 (23.1); in the data set with Plasmodium falciparum [3] (pregnant cases Window 2 (32-36 wks GA), N 13) it was 0 (0). Besides, the “Parasite density (where > 0)” value is 87 (44 - 286) parasites/μL in the data set with Plasmodium falciparum [3] (all pregnant cases, median (interquartile range)); 24 -- parasites/μL in the data set with Plasmodium falciparum [3] (non-pregnant controls, median); 87 (44 - 286) parasites/μL in the data set with Plasmodium falciparum [3] (pregnant cases Window 1, median (interquartile range)). In addition, the “efficacy (in words)” value with Plasmodium falciparum [3] (single 200 mg oral dose of AS, second and third trimester pregnant women) is “effective; also recorded: rapid clearance of parasitaemia”. Also, the Hill slope coefficient with Plasmodium falciparum [4] is listed as 10. Further, in data set [2] (female, human, in vivo, po, 200 mg), the “range of AS AUCs among the subjects” value is given as “more than 17 fold”. In data set [2] (female, human, in vivo, po, 200 mg, median AS AUC), this molecule registered an AUC of 205 ng·h/mL. Further, in data set [5], the “infant development at one year of age” value was “normal physical and neurological development”. Further, in data set [5], the pregnancy outcome is “singleton live births”.

The values are drawn from PMC3056842 (Malaria Journal, 2011).
